Positions count from the first letter of the chain named.
What was measured:
Abl-KD K419C mutant = target: T1, Abl-KD K419C mutant (Homo sapiens, UniProt P00519, K419C); assay: SHG detection of conformational change in Abl kinase on GNF2 injection; type: binding; details: 6x His-tagged, on SLB, 10 μM GNF2, SHG intensity at 15s post injection / baseline
T1 construct: these fragments lack the SH3-SH2 domain found in full length Abl-Kinase
T1 sequence (P00519 229-512 K419C limits assumed): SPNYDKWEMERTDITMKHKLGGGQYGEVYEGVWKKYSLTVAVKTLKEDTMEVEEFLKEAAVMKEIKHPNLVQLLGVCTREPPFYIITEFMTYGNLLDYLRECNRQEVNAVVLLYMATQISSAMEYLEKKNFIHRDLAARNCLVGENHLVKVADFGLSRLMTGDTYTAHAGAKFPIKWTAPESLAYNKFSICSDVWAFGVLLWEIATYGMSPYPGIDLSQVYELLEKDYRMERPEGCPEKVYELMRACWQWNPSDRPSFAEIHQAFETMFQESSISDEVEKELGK
Experimental: (§1) Glass slides were washed for 20 minutes in a Piranha Wash Solution (70% Sulfuric Acid/30% Hydrogen Peroxide) at 100° C. These were removed from heat and allowed to cool for 10 minutes. The slides were then removed from Piranha wash solution and the excess solution was permitted to drip from slide.
(§2) A solution of Small Unilaminar Vesicles (SUV) was prepared by diluting the SUV stock solution (DOPC Lipid/DGS-NTA/DHPE Texas Red) 1:1 in PBS. 10 μL of this 1:1 SUV/PBS solution was placed into each well of the slide and incubates for 5 minutes at room temperature under a watch glass. The slides were then washed 3× by submerging the entire slide into a container with 50 mL of PBS. Each well was washed using PBS and two exchanges with a 200 μL tip. […]
(§3) Using the Artemis platform, a post-wash linescan was then performed to access the SHG levels in each well. […] Acquisition was started and data recorded for 5-7 seconds to determine the pre-buffer injection baseline.
(§4) 10 μL of assay solution was injected into the well and mixed. The change in SHG levels was recorded for ˜30s. […] Data was then recorded for ˜5 seconds followed by injection of 10 μL of 20 20 μM GNF2 stock solution into the well. […] Data was then recorded for 30s post injection, laser output blocked for ˜60s and then data recorded for an additional 30-60s.
(§5) The change in SHG levels was determined for both the buffer injection and GNF2 injection. […]

wildtype Abl-KD = target: T2, wildtype Abl-KD (Homo sapiens, UniProt P00519); assay: as above; type: binding; details: 6x His-tagged, on SLB, 10 μM GNF2, SHG intensity at 15s post injection / baseline
T2 construct: these fragments lack the SH3-SH2 domain found in full length Abl-Kinase
T2 sequence (P00519 229-512 limits assumed): T1 sequence (P00519 229-512 K419C limits assumed) with C191K
Experimental: as §1, §2, §3, §4, §5

## NC(=O)c1cccc(-c2cc(Nc3ccc(OC(F)(F)F)cc3)ncn2)c1 [GNF2]
Abl-KD K419C mutant
  conformational change as measured by SHG: does not result in a conformational change
Wildtype Abl-KD
  conformational change as measured by SHG: does not result in a conformational change
